# Experimental data taken from patent US10028960B2, “Pyrimidine compounds as JAK kinase inhibitors” (THERAVANCE BIOPHARMA R&D IP, LLC, priority 2016, dated 2018).
# “Also recorded” adds a separate entry of the source. Read-outs that look alike come from different tables or passages of the source.
# Legend:
# JAK1 = JAK1 (Homo sapiens (Human), UniProt P23458); assay: LanthaScreen JAK biochemical assay, JAK1
# Description: (§1) A panel of four LanthaScreen JAK biochemical assays (JAK1, 2, 3 and Tyk2) were carried in a common kinase reaction buffer (50 mM HEPES, pH 7.5, 0.01% Brij-35, 10 mM MgCl2, and 1 mM EGTA). Recombinant GST-tagged JAK enzymes and a GFP-tagged STAT1 peptide substrate were obtained from Life Technologies.
# JAK3 = JAK3 (Homo sapiens (Human), UniProt P52333); assay: LanthaScreen JAK biochemical assay, JAK3; conditions: read-out: JAK 3 (pKi) (converted)
# Sequence of JAK3 (P52333 whole entry): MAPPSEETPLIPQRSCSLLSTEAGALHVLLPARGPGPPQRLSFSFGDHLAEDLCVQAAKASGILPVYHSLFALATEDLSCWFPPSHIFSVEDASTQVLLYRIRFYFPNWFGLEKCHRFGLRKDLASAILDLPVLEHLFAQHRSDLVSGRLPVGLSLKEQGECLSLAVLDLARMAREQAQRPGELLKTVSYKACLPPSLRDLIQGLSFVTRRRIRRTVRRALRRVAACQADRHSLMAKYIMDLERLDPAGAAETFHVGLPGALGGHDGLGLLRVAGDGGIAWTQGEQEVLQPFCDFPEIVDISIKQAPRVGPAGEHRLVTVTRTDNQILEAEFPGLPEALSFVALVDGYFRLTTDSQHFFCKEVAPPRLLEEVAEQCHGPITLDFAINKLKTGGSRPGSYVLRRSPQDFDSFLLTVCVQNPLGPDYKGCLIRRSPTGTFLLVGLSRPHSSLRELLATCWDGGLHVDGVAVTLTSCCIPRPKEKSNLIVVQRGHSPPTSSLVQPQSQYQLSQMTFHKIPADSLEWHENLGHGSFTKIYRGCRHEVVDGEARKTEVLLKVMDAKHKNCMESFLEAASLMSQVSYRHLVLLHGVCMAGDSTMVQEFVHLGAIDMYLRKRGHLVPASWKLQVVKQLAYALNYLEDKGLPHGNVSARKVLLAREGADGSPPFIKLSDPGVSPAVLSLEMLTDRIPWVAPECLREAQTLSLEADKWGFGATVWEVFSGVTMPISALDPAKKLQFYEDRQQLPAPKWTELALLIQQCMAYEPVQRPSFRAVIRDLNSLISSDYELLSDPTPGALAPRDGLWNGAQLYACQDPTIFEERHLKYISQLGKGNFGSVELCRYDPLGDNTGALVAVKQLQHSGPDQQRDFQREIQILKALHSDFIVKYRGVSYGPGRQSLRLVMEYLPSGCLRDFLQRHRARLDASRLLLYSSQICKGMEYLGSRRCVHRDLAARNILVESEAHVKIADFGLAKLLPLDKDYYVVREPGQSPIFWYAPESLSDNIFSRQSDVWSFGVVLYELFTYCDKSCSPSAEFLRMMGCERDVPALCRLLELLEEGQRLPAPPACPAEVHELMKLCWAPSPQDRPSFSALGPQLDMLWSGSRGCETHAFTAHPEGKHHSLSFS
# Description: as §1
# Tyk2 = Tyk2 (Homo sapiens (Human), UniProt P29597); assay: LanthaScreen JAK biochemical assay, Tyk2
# Sequence of Tyk2 (P29597 whole entry): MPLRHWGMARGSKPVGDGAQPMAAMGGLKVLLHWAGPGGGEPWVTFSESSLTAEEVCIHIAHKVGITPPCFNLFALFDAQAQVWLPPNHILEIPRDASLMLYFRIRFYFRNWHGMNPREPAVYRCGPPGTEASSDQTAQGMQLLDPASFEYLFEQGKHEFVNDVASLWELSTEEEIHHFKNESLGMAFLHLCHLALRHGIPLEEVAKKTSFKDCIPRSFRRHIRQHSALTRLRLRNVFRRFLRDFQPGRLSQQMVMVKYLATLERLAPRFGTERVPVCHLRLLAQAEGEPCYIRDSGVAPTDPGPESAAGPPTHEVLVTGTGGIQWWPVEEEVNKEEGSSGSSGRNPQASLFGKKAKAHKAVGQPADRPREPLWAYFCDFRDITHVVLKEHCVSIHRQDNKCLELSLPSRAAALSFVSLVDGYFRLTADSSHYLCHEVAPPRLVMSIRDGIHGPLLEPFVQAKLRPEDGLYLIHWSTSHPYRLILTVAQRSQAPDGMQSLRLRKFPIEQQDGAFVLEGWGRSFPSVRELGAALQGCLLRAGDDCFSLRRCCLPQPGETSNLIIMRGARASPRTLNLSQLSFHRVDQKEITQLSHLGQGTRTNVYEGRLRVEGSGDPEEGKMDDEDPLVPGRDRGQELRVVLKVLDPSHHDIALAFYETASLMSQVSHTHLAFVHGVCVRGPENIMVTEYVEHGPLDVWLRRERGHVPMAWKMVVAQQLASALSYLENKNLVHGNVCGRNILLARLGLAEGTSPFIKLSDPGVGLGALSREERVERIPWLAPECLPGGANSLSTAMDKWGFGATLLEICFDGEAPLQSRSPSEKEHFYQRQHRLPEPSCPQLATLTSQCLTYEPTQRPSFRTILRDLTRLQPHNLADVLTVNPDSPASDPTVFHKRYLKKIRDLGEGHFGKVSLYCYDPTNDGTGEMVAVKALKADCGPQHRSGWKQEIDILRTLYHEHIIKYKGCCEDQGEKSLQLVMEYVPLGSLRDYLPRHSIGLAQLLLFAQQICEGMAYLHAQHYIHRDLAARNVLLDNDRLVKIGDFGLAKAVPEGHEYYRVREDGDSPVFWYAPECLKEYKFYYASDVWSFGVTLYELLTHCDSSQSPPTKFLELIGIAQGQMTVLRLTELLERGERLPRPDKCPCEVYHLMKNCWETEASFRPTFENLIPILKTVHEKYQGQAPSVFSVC
# Description: as §1
# [1] = tested on: oxazolone-induced colitis; assay: Mouse model of oxazolone-induced colitis; format: in vivo, BALB/C mice
# Description: Oxazolone-induced colitis is an experimental model that has a histological resemblance to human ulcerative colitis (Heller et al. […], 2002, 17, 629-638). Adult BALB/C mice from Harlan were used in the assay. On day 1, animals were lightly anesthetized with isoflurane and the hairs between the shoulder were carefully removed before oxazolone (4%, 150 μL, 4:1 acetone: olive oil formulation) or vehicle solution was slowly applied for skin sensitization. Seven days after skin sensitization, the mice were fasted overnight, anesthetized with isoflurane inhalation, and a 1 mL syringe equipped with a 3.5-F catheter, filled with oxazolone solution, was inserted carefully about 4 cm into the colon of the mouse. Following insertion, 50 μL of the oxazolone solution (1%, 1:1 ethanol:water formulation) was injected very slowly (over 30 sec using an injection pump) into the colon. The catheter was removed and the mice were held vertically (head down) for 2 min to ensure that the entire oxazolone solution remained inside the colon. Drug treatment (PO, BID or TID) or vehicle was initiated a day prior to the oxazolone intrarectal (IR) challenge. Two-day post oxazolone intrarectal challenge, the Disease Activity Index (DAI) was assessed by treatment-blinded experimenters for each mouse according to the criteria score: stool consistency score (0, normal; 2, loose; 4, diarrhea), gross bleeding score (0, absence; 2, blood tinged; 4, presence), and weight loss score (0, none; 1, 1%-5%; 2, 5%-10%; 3, 10%-20%; 4, more than 20%); DAI=average of (stool consistency score+gross bleeding score+weight loss score).
# Selected compounds of the invention were tested in the assay. Efficacy in the model is evidenced by a decrease in DAI score as compared with the score from vehicle treated animals.
# [2] = tested on: mouse splenic NK, B and T cells; conditions: in vivo, po
# Description: Depletion of mouse splenic cells is an experimental model of immunosuppression (Kudlacz et al., Am. J. of Transplantation, 2004, 4, 51-57). The compound of Example 2 was assessed in the mouse splenic cell model following the same treatment paradigm as that used in the oxazolone-induced colitis model (Assay 8).
# The compound (1, 10 and 100 mg/kg, BID) and tofacitinib (30 and 60 mg/kg, BID) as a positive control were dosed orally for three days to naïve mice. Spleens were harvested 1 h post last dose and crushed immediately for cell subtype staining. Prior to fixation, fluorophore-labelled antibodies for CD19 (FITC; B cells), CD3e (PE; pan T cells) and DX5 (APC; NK cells) were incubated with splenocyte samples from each animal to allow for simultaneous, multiple subtype % analysis on the flow cytometer. The number of total spleen cells for each animal was measured by Scepter™ 2.0 Handheld Automated Cell Counter.
# The absolute number of lymphocyte subtype population (e.g., splenic B, T and NK cells) was calculated from the percentage of each subtype times total spleen cells for each animal. A one way ANOVA, with Dunnett's post hoc test, was used to compare the splenic lymphocytes number of the vehicle and test compound groups. The a level was set at p<0.05. Data were presented as the mean±SEM for each group.
# [3] = in vivo
# From the text: The objective of this assay was to determine the epidermal, dermal and plasma pharmacokinetics of a test compound following a 24 hr exposure to intact mouse or mini-pig skin.
# Twenty-four hours prior to dosing the hair was shaved from the back of 25 g male Balb/c mice exposing an area at of least 6 cm^2 (about 10% of body surface) and, in a separate experiment, of 10 kg Gottingen mini-pigs exposing an area of at least 450 cm^2 (about 10% of body surface). […] The skin was covered with an adhesive cover to prevent loss of compound to the cage or bedding.
# Following 24 h exposure, the backs were gently washed with soap and water to remove non-absorbed drug and patted dry. Immediately following this washing, blood was drawn by cardiac puncture from the mice and via venipuncture from the mini-pigs. The outer skin (stratum corneum) was then removed by adhesive tape stripping. Upon exposure of the epidermis a 0.5 cm punch biopsy was taken. The epidermis and dermis were quickly separated, weighed and snap frozen.
# [4] = tested on: TPA-induced increase in ear thickness; assay: Topical TPA-induced irritant contact dermatitis model in mice; format: in vivo, Balb/c mice; conditions: mouse ear, 6 hours after TPA
# Description: The objective of this assay is to assess the anti-inflammatory effect in a model of acute dermatitis of test compounds being studied for cutaneous inflammatory conditions such as atopic dermatitis (Dong et al., J Pharmacol Exp Ther, 2013, 344, 436-446).
# Topical dermal application of phorbol ester 12-O-tetradecanoylphorbol-13-acetate (TPA) in mice causes an inflammatory response that is characterized by edema and neutrophil influx at the early phase (2-24 h) and by epidermal cell proliferation at the later phase (24-48 h) (Griffiths et al., Agents and Actions, 1988, 25, 344-351). Female Balb/c mice were topically administered with either vehicle (1:7 DMSO:acetone) or 20 μL of a solution of TPA (2.5 μg) in vehicle on each ear. At 30 min before and 15 min after TPA administration, either vehicle or the compound of Example 2 at doses of 30, 100, 300, 1000, and 3000 μg in vehicle was applied topically to each ear. The degree of inflammation was assessed as the change in ear thickness at 6 hours after TPA application.
# in vivo = conditions: Sprague Dawley, rat, po
# Description: (§2) The test compound was formulated in 0.5% methyl-cellulose in water and dosed via oral gavage at 3.2 mg/kg and 100 mg/kg to Sprague Dawley rats. At various time points (typically 0.5, 1, 3, 6, 24 hr) post dosing, blood samples were removed via cardiac puncture and intact colons were excised from the rats. Blood samples were centrifuged at 1500×g for 15 min to collect plasma. Colons were washed with ice cold phosphate buffered saline (PBS), weighed, and homogenized at a dilution of 1:10 in PBS. Plasma and colon levels of test compound were determined by LC-MS analysis against analytical standards constructed into a standard curve in the test matrix. A colon to plasma ratio was determined as the ratio of the colon AUC to the plasma AUC in μg hr/g.
# [5] = Colon pharmacokinetics in rats; conditions: Sprague Dawley, rat, colon and plasma, po, 5 mg/kg
# Description: as §2
# Sequence of JAK1 (P23458 whole entry): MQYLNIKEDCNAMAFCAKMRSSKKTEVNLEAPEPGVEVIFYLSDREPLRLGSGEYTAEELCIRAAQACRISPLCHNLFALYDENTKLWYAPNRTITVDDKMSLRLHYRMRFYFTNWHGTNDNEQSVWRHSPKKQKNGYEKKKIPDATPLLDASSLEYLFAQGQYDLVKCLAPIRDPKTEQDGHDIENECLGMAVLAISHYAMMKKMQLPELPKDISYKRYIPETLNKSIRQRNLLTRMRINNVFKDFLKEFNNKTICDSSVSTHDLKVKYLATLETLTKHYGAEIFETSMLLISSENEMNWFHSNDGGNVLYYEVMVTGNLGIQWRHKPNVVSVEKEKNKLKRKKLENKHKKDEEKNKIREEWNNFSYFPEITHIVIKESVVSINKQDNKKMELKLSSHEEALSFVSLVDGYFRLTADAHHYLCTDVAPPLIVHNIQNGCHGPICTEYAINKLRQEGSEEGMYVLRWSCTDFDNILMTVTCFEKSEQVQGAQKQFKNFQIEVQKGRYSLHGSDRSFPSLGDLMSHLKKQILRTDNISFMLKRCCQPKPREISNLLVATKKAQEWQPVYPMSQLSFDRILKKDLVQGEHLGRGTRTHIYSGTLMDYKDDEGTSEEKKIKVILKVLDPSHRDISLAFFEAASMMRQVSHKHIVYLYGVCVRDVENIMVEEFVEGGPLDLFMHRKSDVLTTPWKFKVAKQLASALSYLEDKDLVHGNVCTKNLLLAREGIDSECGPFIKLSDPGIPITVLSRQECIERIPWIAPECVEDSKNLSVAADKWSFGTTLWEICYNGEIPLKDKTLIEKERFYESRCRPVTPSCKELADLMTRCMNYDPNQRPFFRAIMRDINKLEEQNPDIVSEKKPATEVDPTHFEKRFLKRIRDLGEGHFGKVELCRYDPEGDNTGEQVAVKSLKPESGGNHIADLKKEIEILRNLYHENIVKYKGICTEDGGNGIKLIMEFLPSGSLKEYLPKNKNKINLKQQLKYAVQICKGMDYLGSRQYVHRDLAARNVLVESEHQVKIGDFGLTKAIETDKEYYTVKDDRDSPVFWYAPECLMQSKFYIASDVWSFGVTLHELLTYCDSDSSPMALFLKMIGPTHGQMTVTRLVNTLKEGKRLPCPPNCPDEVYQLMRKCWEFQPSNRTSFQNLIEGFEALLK
smiles,measurement,setting,value
"COc1cc(Nc2cc(CO)[nH]n2)nc(N(C)[C@@H]2C[C@H]3CCC[C@@H](C2)N3S(=O)(=O)N2CC(C#N)C2)n1 [Example 2, 1-(((1R,3s,5S)-3-((4-((5-(Hydroxymethyl)-1H-pyrazol-3-yl)amino)-6-methoxypyrimidin-2-yl)(methyl)amino)-9-azabicyclo[3.3.1]nonan-9-yl)sulfonyl)azetidine-3-carbonitrile]",JAK 1 (pKi),JAK1,A (A represents a pKi value≥10 (Ki≤0.1 nM))
same,Ki,JAK3,0.1 to 1 nM
same,Ki,Tyk2,0.1 to 1 nM
same,activity in the oxazolone-induced colitis model,[1]; mice,demonstrated activity
same,minimal dose that caused a significant anti-colitic effect,"[1]; mouse, PO BID",1 mg/kg
same,decrease in DAI score as compared with vehicle treated animals,"[1]; mouse, PO, 1, 3, and/or 10 mg/kg BID",statistically significant decrease
same,treatment effect on B and T cell populations,[2],No treatment effect
same,duration of sustained dermal levels,"[3]; Gottingen, minipig",at least 7 days
same,duration of sustained dermal levels,"[3]; male, Balb/c, mouse",at least 2 days
same,inhibition of TPA-induced increase in ear thickness (in words),[4]; topical 30-3000 μg,dose- and concentration-dependent effect; also recorded: dose- and concentration-dependent inhibition
same,maximum statistically significant inhibition of TPA-induced increase in ear thickness,"[4]; topical, 1000 μg dose",41%
same,Kp,in vivo; 5 mg/kg,> 250
same,Kp,in vivo; 100 mg/kg,> 1200
same,Kp,[5],> 250
